Data on 9 molecules can be found in patent US9193719B2, “1,2,4-triazol-5-ones and analogs exhibiting anti-cancer and anti-proliferative activities” (Deciphera Pharmaceuticals, LLC, priority 2013, dated 2015).

For one experiment, the system named is M-NFS-60 cells. The experiment is described as follows: M-NFS-60 cell proliferation assay (resazurin). The note with it: 67 h incubation. Format: cell-based. A digest of the protocol:
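Cells kept in medium containing 20 ng/mL mouse recombinant M-CSF. Fluorescence was read at ex 540/em 600 nm, and IC50 was fitted from percent inhibition across a range of inhibitor concentrations.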
On the technique in general: Alamar Blue is a resazurin reagent that responds to reducing activity.

Experiment [1] addresses T1, unphosphorylated c-FMS kinase (uFMS, Seq. ID no. 1) (Homo sapiens, UniProt P07333).
T1 construct: purchased Millipore
T1 sequence (P07333 538-972): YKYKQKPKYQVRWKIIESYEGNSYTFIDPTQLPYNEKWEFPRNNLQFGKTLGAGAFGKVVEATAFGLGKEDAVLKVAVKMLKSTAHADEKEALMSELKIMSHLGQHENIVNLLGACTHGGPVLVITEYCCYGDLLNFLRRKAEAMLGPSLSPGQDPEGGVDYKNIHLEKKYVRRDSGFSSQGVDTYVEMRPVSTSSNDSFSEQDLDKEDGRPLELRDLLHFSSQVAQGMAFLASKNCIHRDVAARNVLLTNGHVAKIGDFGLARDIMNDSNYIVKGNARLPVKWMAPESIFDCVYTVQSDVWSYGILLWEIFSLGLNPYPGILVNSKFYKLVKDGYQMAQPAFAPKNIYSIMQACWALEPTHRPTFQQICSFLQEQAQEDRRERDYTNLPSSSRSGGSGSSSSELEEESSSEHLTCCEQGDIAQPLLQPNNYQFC
The experiment is described as follows: uFMS kinase enzymatic assay (pyruvate kinase/lactate dehydrogenase coupled). Format: biochemical. The note with it: ATP 500 μM, rate 3 to 4 h. In a few lines: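 Coupled PK/LDH assay following NADH oxidation at A340 with 10 nM unphosphorylated FMS, 1 mg/mL polyE4Y, 500 μM ATP in 90 mM Tris pH 7.5, 0.2% octyl-glucoside, 1% DMSO. Read continuously 4 h at 30 °C; rate from 3–4 h window versus no-compound control; IC50 from percent-inhibition series.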

The test system of experiment [2] is phospho-FMS in THP-1 cells. The experiment in a line: Phospho-FMS ELISA assay in THP-1 cells. The class given is cell-based. The settings on record: Homo sapiens, 4 h compound, M-CSF stimulation 5 min, read-out: pFMS inhibition in THP-1 cells. As to the method:
THP-1 cells (catalog #TIB-202) were obtained from the ATCC. Briefly, cells were grown in RPMI 1640 supplemented with 10% characterized fetal bovine serum, 1% sodium pyruvate, 1% Penicillin-Streptomycin-Glutamine (PSG) and 55 uM 2-mercaptoethanol (Invitrogen, Carlsbad, Calif.) at 37 degrees Celsius, 5% CO2, 95% humidity. Cells were allowed to expand until reaching 70-95% confluency at which point they were subcultured or harvested for assay use.
A serial dilution of test compound was diluted 1:100 in assay medium (RPMI 1640 supplemented with 10% characterized fetal bovine serum) in a 96 well black clear bottom plate (Corning, Corning, N.Y.). In a separate 96 well black clear bottom plate, one hundred and fifty thousand THP-1 cells were added per well in 100 μL in assay medium. Fifty microliters of diluted compound was then added to the cells. Plates were incubated for 4 hours at 37 degrees Celsius, 5% CO2, 95% humidity. At the end of the incubation period, cells were stimulated with 50 μL of a 100 nM solution of recombinant human M-CSF (catalog #216-MC, R & D Systems, Minneapolis, Minn.) in assay medium and the plate was incubated for 5 minutes at 37 degrees Celsius, 5% CO2, 95% humidity. Lysates were prepared and used to perform the phospho-FMS ELISA as described by the manufacturer (catalog #DYC3268, R & D Systems, Minneapolis, Minn.). GraphPad Prism was used to calculate IC50 values obtained from data generated from the ELISA assay.
On the technique in general: In an ELISA, binding on a coated surface is turned into a signal by an enzyme label.

Another experiment concerns osteoclast precursors. The experiment in a line: Osteoclast tartrate-resistant acid phosphatase assay. Format: cell-based. The settings on record: RANKL and M-CSF, 7-14 days, tartrate-resistant acid phosphatase activity.

Take `Cc1nc(-n2nc(C3(C(F)(F)F)CCC3)[nH]c2=O)ccc1Oc1ccnc(-c2cnn(C)c2)c1` [Example 43, 1-(6-methyl-5-((2-(1-methyl-1H-pyrazol-4-yl)pyridin-4-yl)oxy)pyridin-2-yl)-3-(1-(trifluoromethyl)cyclobutyl)-1H-1,2,4-triazol-5(4H)-one]: the IC50 with M-NFS-60 cells was 0.1 to 1 µM; in experiment [1], at most 0.01 µM; in experiment [2] it was 0.1 to 1 µM; with osteoclast precursors, 0.01 to 0.1 µM.
On to `Cc1nc(-n2nc(C(C)C)[nH]c2=O)ccc1Oc1ccnc(-c2cnn(C)c2)c1` [Example 5, 3-isopropyl-1-(6-methyl-5-((2-(1-methyl-1H-pyrazol-4-yl)pyridin-4-yl)oxy)pyridin-2-yl)-1H-1,2,4-triazol-5(4H)-one], for which the IC50 (in the experiment on M-NFS-60 cells; in experiment [1]; in experiment [2]; in the experiment on osteoclast precursors) was 0.01 to 0.1 µM throughout.
Take `COC(C)(C)c1nn(-c2ccc(Oc3ccnc(-c4cnn(C)c4)c3)c(C)n2)c(=O)[nH]1` [Example 16, 3-(2-methoxypropan-2-yl)-1-(6-methyl-5-((2-(1-methyl-1H-pyrazol-4-yl)pyridin-4-yl)oxy)pyridin-2-yl)-1H-1,2,4-triazol-5(4H)-one]: the IC50 fell in the range of 0.1 to 1 µM in the experiment with M-NFS-60 cells, 0.01 to 0.1 µM in experiment [1], 0.1 to 1 µM in experiment [2] and 0.01 to 0.1 µM in the experiment on osteoclast precursors.
Consider `Cc1nc(-n2nc(Cc3ccccc3)[nH]c2=O)ccc1Oc1ccnc(-c2cnn(C)c2)c1` [Example 2, 3-benzyl-1-(6-methyl-5-((2-(1-methyl-1H-pyrazol-4-yl)pyridin-4-yl)oxy)pyridin-2-yl)-1H-1,2,4-triazol-5(4H)-one], for which the IC50 in the experiment on M-NFS-60 cells was 0.01 to 0.1 µM; in experiment [1], at most 0.01 µM; in experiment [2] it was at most 0.01 µM; with osteoclast precursors, 0.01 to 0.1 µM.
As to `Cc1cc(-n2nc(C(C)(C)C)[nH]c2=O)nc(C)c1Oc1ccnc(-c2cnn(C)c2)c1` [Example 33, 3-(tert-butyl)-1-(4,6-dimethyl-5-((2-(1-methyl-1H-pyrazol-4-yl)pyridin-4-yl)oxy)pyridin-2-yl)-1H-1,2,4-triazol-5(4H)-one], the IC50 with M-NFS-60 cells was in the range of 0.1 to 1 µM; in experiment [1] it was 0.01 to 0.1 µM; in experiment [2] it was 0.01 to 0.1 µM; in the experiment on osteoclast precursors, 0.1 to 1 µM.
For `Cc1nc(-n2nc(C(C)(C)C)[nH]c2=O)ccc1Oc1ccnc(-c2ccc(C3CCN(C)CC3)cc2)c1` [Example 14, 3-(tert-butyl)-1-(6-methyl-5-((2-(4-(1-methylpiperidin-4-yl)phenyl)pyridin-4-yl)oxy)pyridin-2-yl)-1H-1,2,4-triazol-5(4H)-one], the IC50 was 0.01 to 0.1 µM in the experiment with M-NFS-60 cells, at most 0.01 µM in experiment [1], 0.01 to 0.1 µM in experiment [2] and at most 0.01 µM in the experiment on osteoclast precursors.
Consider `Cc1nc(-n2nc(C3CCOCC3)[nH]c2=O)ccc1Oc1ccnc(-c2cnn(C)c2)c1` [Example 20, 1-(6-methyl-5-((2-(1-methyl-1H-pyrazol-4-yl)pyridin-4-yl)oxy)pyridin-2-yl)-3-(tetrahydro-2H-pyran-4-yl)-1H-1,2,4-triazol-5(4H)-one], for which the IC50 in the experiment with M-NFS-60 cells was 0.1 to 1 µM; in experiment [1] it was at most 0.01 µM; in experiment [2], 0.1 to 1 µM; with osteoclast precursors, 0.1 to 1 µM.
In the case of `Cc1nc(-n2nc(C(C)(C)C)[nH]c2=O)ccc1Oc1ccnc(NC(=O)N(C)C)c1` [Example 30, 3-(4-((6-(3-(tert-butyl)-5-oxo-4,5-dihydro-1H-1,2,4-triazol-1-yl)-2-methylpyridin-3-yl)oxy)pyridin-2-yl)-1,1-dimethylurea], the IC50 with M-NFS-60 cells is over 1 µM; in experiment [1] it was 0.01 to 0.1 µM; in experiment [2] it was 0.1 to 1 µM; with osteoclast precursors it was 0.01 to 0.1 µM.
For the molecule `CCC(C)(C)c1nn(-c2ccc(Oc3ccnc(-c4cnn(C)c4)c3)c(C)n2)c(=O)[nH]1` [Example 25, 1-(6-methyl-5-((2-(1-methyl-1H-pyrazol-4-yl)pyridin-4-yl)oxy)pyridin-2-yl)-3-(tert-pentyl)-1H-1,2,4-triazol-5(4H)-one], the IC50 was 0.01 to 0.1 µM with M-NFS-60 cells, at most 0.01 µM in experiment [1], 0.01 to 0.1 µM in experiment [2] and 0.01 to 0.1 µM in the experiment on osteoclast precursors.
